According to US5663331A, “Cephalosporin compounds” (Il-Dong Pharm. Co., Ltd., priority 1992, dated 1997):
Converted amounts (≈) assume the structure as drawn.

Experiments:
Type in all cases: cell-based
[1] = test system: Bacillus subtilis ATCC 6633; experiment: MIC, two-fold dilution method, Bacillus subtilis ATCC 6633; settings: 10^6 CFU per ml, 37° C., 18 to 20 hours; for MIC: ATCC6633, Muller Hinton Broth, read-out: Antibacterial Activity (MIC); for Antibacterial Activity (MIC): Muller Hinton Broth
Summary of the method: (§1)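 Two-fold serial dilutions of compound were prepared in Mueller Hinton Broth and inoculated with the standard strain at 10^6 CFU per ml. Cultures were incubated at 37° C. for 18 to 20 hours, and the MIC was taken as the minimal inhibitory concentration.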

[2] = test system: Staphylococcus aureus ATCC 65389; experiment: MIC, two-fold dilution method, Staphylococcus aureus ATCC 65389; settings: 10^6 CFU per ml, 37° C., 18 to 20 hours; for MIC: ATCC65389, Muller Hinton Broth, read-out: Antibacterial Activity (MIC); for Antibacterial Activity (MIC): Muller Hinton Broth
Summary of the method: as §1

[3] = test system: Staphylococcus epidermidis ATCC 12228; experiment: MIC, two-fold dilution method, Staphylococcus epidermidis ATCC 12228; settings: 10^6 CFU per ml, 37° C., 18 to 20 hours; for MIC: ATCC12228, Muller Hinton Broth, read-out: Antibacterial Activity (MIC); for Antibacterial Activity (MIC): Muller Hinton Broth
Summary of the method: as §1

[4] = test system: Streptococcus faecalis ATCC 10541; experiment: MIC, two-fold dilution method, Streptococcus faecalis ATCC 10541; settings: 10^6 CFU per ml, 37° C., 18 to 20 hours; for MIC: Enterococcus faecalis, ATCC10541, Muller Hinton Broth, read-out: Antibacterial Activity (MIC); for Antibacterial Activity (MIC): Muller Hinton Broth
Summary of the method: as §1

[5] = test system: Pseudomonas aeurginosa NCTC 10490; experiment: MIC, two-fold dilution method, Pseudomonas aeurginosa NCTC 10490; settings: 10^6 CFU per ml, 37° C., 18 to 20 hours; for MIC: NCTC10490, Muller Hinton Broth, read-out: Antibacterial Activity (MIC); for Antibacterial Activity (MIC): Muller Hinton Broth
Summary of the method: as §1

[6] = test system: Esherichia coli ATCC 25922; experiment: MIC, two-fold dilution method, Esherichia coli ATCC 25922; settings: Muller Hinton Broth, 10^6 CFU per ml, 37° C., 18 to 20 hours; for MIC: read-out: Antibacterial Activity (MIC)
Summary of the method: as §1

[7] = test system: Klebsiella pneumoniae ATCC 10031; experiment: MIC, two-fold dilution method, Klebsiella pneumoniae ATCC 10031; settings: 10^6 CFU per ml, 37° C., 18 to 20 hours; for MIC: ATCC10031, Muller Hinton Broth, read-out: Antibacterial Activity (MIC); for Antibacterial Activity (MIC): Muller Hinton Broth
Summary of the method: as §1

Structure (SMILES) | MIC [1] [µg/mL] | MIC [2] [µg/mL] | MIC [3] [µg/mL] | MIC [4] [µg/mL] | MIC [5] [µg/mL] | MIC [6] [µg/mL] | MIC [7] [µg/mL] | Antibacterial Activity (MIC) [1] [µg/mL] | Antibacterial Activity (MIC) [2] [µg/mL] | Antibacterial Activity (MIC) [3] [µg/mL] | Antibacterial Activity (MIC) [4] [µg/mL] | Antibacterial Activity (MIC) [5] [µg/mL] | Antibacterial Activity (MIC) [6] [µg/mL] | Antibacterial Activity (MIC) [7] [µg/mL]
C=CCO/N=C(\C(=O)NC1C(=O)N2C(C(=O)[O-])=C(CSc3cc[n+](C)c4cc(N5CCN(CC)CC5)c(F)cc34)CSC12)c1csc(N)n1 (centres unmarked) [Compound I-23, 7-[(Z)-2-(2-aminothiazol-4-yl)-2-(allyloxyimino)acetamido]-3-[1-methyl-6-fluoro-7-(1-ethylpiperazinyl)quinolinium-4-yl]thiomethyl-3-cephem-4-carboxylate] | 0.2 (≈ 0.275 µM) | 0.1 (≈ 0.138 µM) | 0.1 (≈ 0.138 µM) | 0.2 (≈ 0.275 µM) | 1.56 (≈ 2.15 µM) | 1.56 (≈ 2.15 µM) | 0.2 (≈ 0.275 µM) | – | – | – | – | – | – | –
C=CCO/N=C(\C(=O)NC1C(=O)N2C(C(=O)[O-])=C(CSc3cc[n+](C)c4cc(N5CCNCC5)c(F)cc34)CS[C@H]12)c1csc(N)n1 (some centres unmarked) [Compound I-21, 7-[(Z)-2-(2-aminothiazol-4-yl)-2-(allyloxyimino)acetamido]-3-(1-methyl-6-fluoro-7-piperazinylquinolinium-4-yl)thiomethyl-3-cephem-4-carboxylate] | 0.39 (≈ 0.558 µM) | 0.2 (≈ 0.286 µM) | 0.1 (≈ 0.143 µM) | 0.025 (≈ 0.0358 µM) | 6.25 (≈ 8.94 µM) | 3.13 (≈ 4.48 µM) | 0.1 (≈ 0.143 µM) | – | – | – | – | – | – | –
CC[n+]1ccc(SCC2=C(C(=O)[O-])N3C(=O)C(NC(=O)/C(=N\OC)c4csc(N)n4)C3SC2)c2cc(F)c(N3CCNCC3)cc21 (centres unmarked) [Compound I-9, 7-[(Z)-2-(2-aminothiazol-4-yl)-2-(methoxyimino)acetamido]-3-(1-ethyl-6-fluoro-7-piperazinylquinolinum-4-yl)thiomethyl-3-cephem-4-carboxylate] | 0.1 (≈ 0.146 µM) | 0.2 (≈ 0.291 µM) | 0.2 (≈ 0.291 µM) | 0.1 (≈ 0.146 µM) | 3.13 (≈ 4.56 µM) | 1.56 (≈ 2.27 µM) | 0.78 (≈ 1.14 µM) | – | – | – | – | – | – | –
Cc1cn(-c2cc3c(cc2F)c(SCC2=C(C(=O)[O-])N4C(=O)C(NC(=O)/C(=N\OC(C)(C)C(=O)O)c5csc(N)n5)[C@H]4SC2)cc[n+]3C2CC2)cn1 (some centres unmarked) [Compound I-68, 7-[(Z)-2-(2-aminothiazol-4-yl)-2-(2-carboxyprop-2-oxyimino)acetamido]-3-[1-cyclopropyl-6-fluoro-7-(4-methylimidazolyl)quinolinium-4-yl]thiomethyl-3-cephem-4-carboxylate] | – | – | – | – | – | – | – | 0.78 | 1.56 | 1.56 | 0.2 | 0.78 | 1.56 | 0.78
C#CCO/N=C(\C(=O)NC1C(=O)N2C(C(=O)[O-])=C(CSc3cc[n+](CC)c4cc(N5CCNCC5C)c(F)cc34)CS[C@H]12)c1csc(N)n1 (some centres unmarked) [Compound I-48, 7-[(Z)-2-(2-aminothiazol-4-yl)-2-(propargyloxyimino)acetamido]-3-[1-ethyl-6-fluoro-7-(2-methylpiperazinyl)quinolinium-4-yl]thiomethyl-3-cephem-4-carboxylate] | – | – | – | – | – | – | – | 0.1 | 0.39 | 0.78 | 0.39 | 1.56 | 3.13 | 1.56
C=CC[n+]1ccc(SCC2=C(C(=O)[O-])N3C(=O)C(NC(=O)/C(=N\OC)c4csc(N)n4)[C@H]3SC2)c2cc(F)c(N3CCNCC3)cc21 (some centres unmarked) [Compound I-13, 7-[(Z)-2-(2-aminothiazol-4-yl)-2-(methoxyimino)acetamido]-3-(1-allyl-6-fluoro-7-piperazinylquinolinium-4-yl)thiomethyl-3-cephem-4-carboxylate] | 0.39 (≈ 0.558 µM) | 1.56 (≈ 2.23 µM) | 1.56 (≈ 2.23 µM) | 0.78 (≈ 1.12 µM) | 1.56 (≈ 2.23 µM) | 3.13 (≈ 4.48 µM) | 0.78 (≈ 1.12 µM) | – | – | – | – | – | – | –
CO/N=C(\C(=O)NC1C(=O)N2C(C(=O)[O-])=C(CSc3cc[n+](C4CC4)c4cc(-n5cnc(C)c5)c(F)cc34)CSC12)c1csc(N)n1 (centres unmarked) [Compound I-20, 7-[(Z)-2-(2-aminothiazol-4-yl)-2-(methoxyimino)acetamido]-3-[1-cyclopropyl-6-fluoro-7-(4-methylimidazolyl)quinolinium-4-yl]thiomethyl-3-cephem-4-carboxylate] | – | – | – | – | – | – | – | 0.2 | 0.78 | 0.39 | 0.2 | 1.56 | 1.56 | 0.1
CCN1CCN(c2cc3c(cc2F)c(SCC2=C(C(=O)[O-])N4C(=O)C(NC(=O)/C(=N\OC(C)(C)C(=O)O)c5csc(N)n5)C4SC2)cc[n+]3C)CC1 (centres unmarked) [Compound I-55, 7-[(Z)-2-(2-aminothiazol-4-yl)-2-(2-carboxyprop-2-oxyimino)acetamido]-3-[1-methyl-6-fluoro-7-(1-ethylpiperazinyl)quinolinium-4-yl]thiomethyl-3-cephem4-carboxylate] | 0.2 (≈ 0.259 µM) | 1.56 (≈ 2.02 µM) | 0.78 (≈ 1.01 µM) | 0.2 (≈ 0.259 µM) | 0.39 (≈ 0.505 µM) | 0.78 (≈ 1.01 µM) | 0.39 (≈ 0.505 µM) | – | – | – | – | – | – | –
C=CC[n+]1ccc(SCC2=C(C(=O)[O-])N3C(=O)C(NC(=O)/C(=N\OC)c4csc(N)n4)C3SC2)c2cc(F)c(N3CCNCC3C)cc21 (centres unmarked) [Compound I-16, 7-[(Z)-2-(2-aminothiazol-4-yl)-2-(methoxyimino)acetamido]-3-[1-allyl-6-fluoro-7-(2-methylpiperazinyl)quinolinium-4-yl]thiomethyl 3-cephem-4-carboxylate] | – | – | – | – | – | – | – | 0.2 | 0.2 | 0.39 | 0.78 | 1.56 | 1.56 | 0.39
C=CCO/N=C(\C(=O)NC1C(=O)N2C(C(=O)[O-])=C(CSc3cc[n+](CC=C)c4cc(N5CCN(CC)CC5)c(F)cc34)CSC12)c1csc(N)n1 (centres unmarked) [Compound I-35, 7-[(Z)-2-(2-aminothiazol-4-yl)-2-(allyloxyimino)acetamido]-3-[1-allyl-6-fluoro-7-(1-ethylpiperazinyl)quinolinium-4-yl]thiomethyl-3-cephem-4-carboxylate] | 0.39 (≈ 0.518 µM) | 0.78 (≈ 1.04 µM) | 0.78 (≈ 1.04 µM) | 0.39 (≈ 0.518 µM) | 0.78 (≈ 1.04 µM) | 1.56 (≈ 2.07 µM) | 0.78 (≈ 1.04 µM) | – | – | – | – | – | – | –
C=CCO/N=C(\C(=O)NC1C(=O)N2C(C(=O)[O-])=C(CSc3cc[n+](C)c4cc(N5CCNCC5C)c(F)cc34)CS[C@H]12)c1csc(N)n1 (some centres unmarked) [Compound I-24, 7-[(Z)-2-(2-aminothiazol-4-yl)-2-(allyloxyimino)acetamido]-3-[1-methyl-6-fluoro-7-(2-methylpiperazinyl)quinolinium-4-yl]thiomethyl-3-cephem-4-carboxylate] | – | – | – | – | – | – | – | 0.2 | 0.1 | 0.1 | 0.1 | 0.78 | 1.56 | 0.2
